Laboratory results: patent US8772343B2, “Chemical compounds” (Pfizer Limited, priority 2010, dated 2014)
Where a name gives a salt, the structure may show the parent alone.

target: T1, Nav1.7 (or SCN9A) channel (Homo sapiens, UniProt Q15858); assay: Nav1.7 PatchXpress automated whole-cell electrophysiology in HEK cells expressing hSCN9A; assay type: cell-based; settings: estimated IC50 from single point data, PatchXpress assay, held at V1/2 of inactivation, read-out: Nav1.7 EIC50
T1 construct: expressed in transfected cells
T1 sequence (Q15858 whole entry): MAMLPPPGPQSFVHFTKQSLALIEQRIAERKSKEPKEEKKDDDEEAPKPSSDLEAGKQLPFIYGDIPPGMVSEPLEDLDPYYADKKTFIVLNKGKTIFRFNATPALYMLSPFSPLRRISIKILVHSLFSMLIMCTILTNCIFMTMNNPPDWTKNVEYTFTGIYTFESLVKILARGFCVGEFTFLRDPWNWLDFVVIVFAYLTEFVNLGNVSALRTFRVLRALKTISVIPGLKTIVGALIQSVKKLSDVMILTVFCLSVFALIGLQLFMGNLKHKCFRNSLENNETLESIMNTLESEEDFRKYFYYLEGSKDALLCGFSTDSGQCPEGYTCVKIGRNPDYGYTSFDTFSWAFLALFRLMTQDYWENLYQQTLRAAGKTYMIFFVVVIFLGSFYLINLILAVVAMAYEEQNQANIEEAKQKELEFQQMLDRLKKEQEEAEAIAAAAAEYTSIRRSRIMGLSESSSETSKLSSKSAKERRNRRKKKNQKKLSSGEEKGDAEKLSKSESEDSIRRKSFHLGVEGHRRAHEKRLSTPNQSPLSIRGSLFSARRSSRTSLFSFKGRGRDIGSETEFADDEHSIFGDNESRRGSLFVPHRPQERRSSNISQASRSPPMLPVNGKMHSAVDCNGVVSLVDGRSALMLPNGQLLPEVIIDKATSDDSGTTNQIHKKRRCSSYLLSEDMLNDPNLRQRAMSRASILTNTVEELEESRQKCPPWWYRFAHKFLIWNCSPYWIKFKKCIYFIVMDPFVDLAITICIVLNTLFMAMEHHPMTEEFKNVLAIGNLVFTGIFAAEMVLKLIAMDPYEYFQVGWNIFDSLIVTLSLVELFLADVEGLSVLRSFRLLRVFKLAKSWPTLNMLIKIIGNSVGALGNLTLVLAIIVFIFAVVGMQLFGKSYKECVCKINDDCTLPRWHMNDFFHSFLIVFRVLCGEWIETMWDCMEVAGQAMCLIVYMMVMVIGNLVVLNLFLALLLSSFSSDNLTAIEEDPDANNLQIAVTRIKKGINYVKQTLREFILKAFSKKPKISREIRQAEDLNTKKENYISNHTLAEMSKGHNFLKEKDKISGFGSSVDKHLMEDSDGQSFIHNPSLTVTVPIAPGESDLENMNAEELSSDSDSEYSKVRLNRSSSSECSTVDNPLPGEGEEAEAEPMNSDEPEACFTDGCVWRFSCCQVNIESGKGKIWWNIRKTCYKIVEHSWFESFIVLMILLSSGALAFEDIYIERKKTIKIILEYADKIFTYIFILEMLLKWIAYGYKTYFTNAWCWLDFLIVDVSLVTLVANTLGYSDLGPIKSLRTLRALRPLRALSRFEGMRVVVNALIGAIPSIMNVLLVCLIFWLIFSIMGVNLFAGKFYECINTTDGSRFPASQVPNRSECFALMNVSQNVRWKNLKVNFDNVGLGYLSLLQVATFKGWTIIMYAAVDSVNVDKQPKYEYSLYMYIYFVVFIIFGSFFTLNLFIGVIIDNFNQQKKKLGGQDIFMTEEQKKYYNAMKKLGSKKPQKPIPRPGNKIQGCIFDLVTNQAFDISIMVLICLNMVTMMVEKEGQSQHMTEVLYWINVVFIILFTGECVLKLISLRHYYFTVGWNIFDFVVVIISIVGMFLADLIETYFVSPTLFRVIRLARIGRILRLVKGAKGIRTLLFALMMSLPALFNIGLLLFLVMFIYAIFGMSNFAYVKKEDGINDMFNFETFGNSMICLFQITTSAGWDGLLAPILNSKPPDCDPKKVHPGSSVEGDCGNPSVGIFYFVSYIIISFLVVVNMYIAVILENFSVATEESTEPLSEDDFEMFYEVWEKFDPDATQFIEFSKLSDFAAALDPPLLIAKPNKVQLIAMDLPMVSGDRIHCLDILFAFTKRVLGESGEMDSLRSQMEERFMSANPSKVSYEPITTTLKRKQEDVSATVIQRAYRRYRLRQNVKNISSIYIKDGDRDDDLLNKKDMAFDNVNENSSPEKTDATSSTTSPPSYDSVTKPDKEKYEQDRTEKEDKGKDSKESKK
Experimental: The ability of the compounds of formula (I) to block the Nav1.7 (or SCN9A) channel were measured using the assay described below.
Human Embryonic Kidney (HEK) cells were transfected with an hSCN9A construct using lipofectamine reagent (Invitrogen), using standard techniques. Cells stably expressing the hSCN9A constructs were identified by their resistance to G-418 (400 μg/ml). Clones were screened for expression using the whole-cell voltage-clamp technique.
HEK cells stably transfected with hSCN9A were maintained in DMEM medium supplemented with 10% heat-inactivated fetal bovine serum and 400 μg/ml G-418 in an incubator at 37° C. with a humidified atmosphere of 10% CO2. For HTS, cells were harvested from flasks by trypsinization and replated in an appropriate multi-well plate (typically 96 or 384 wells/plate) such that confluence would be achieved within 24 hours of plating. For electrophysiological studies, cells were removed from the culture flask by brief trypsinization and re-plated at low density onto glass cover slips. Cells were typically used for electrophysiological experiments within 24 to 72 hours after plating.
Cover slips containing HEK cells expressing hSCN9A were placed in a bath on the stage of an inverted microscope and perfused (approximately 1 ml/minutes) with extracellular solution of the following composition: 138 mM NaCl, 2 mM CaCl2, 5.4 mM KCl, 1 mM MgCl2, 10 mM glucose, and 10 mM HEPES, pH 7.4, with NaOH. […] The osmolarity of the extracellular and intracellular solutions was 300 mOsm/kg and 295 mOsm/kg, respectively. All recordings were made at room temperature (22-24° C.) using AXOPATCH 200B amplifiers and PCLAMP software (Axon Instruments, Burlingame, Calif.).
hSCN9A currents in HEK cells were measured using the whole-cell configuration of the patch-clamp technique (Hamill et al., 1981). Uncompensated series resistance was typically 2 to 5 mega ohms and >85% series resistance compensation was routinely achieved. As a result, voltage errors were negligible and no correction was applied. Current records were acquired at 20 to 50 KHz and filtered at 5 to 10 KHz.
HEK cells stably transfected with hSCN9A were viewed under Hoffman contrast optics and placed in front of an array of flow pipes emitting either control or compound-containing extracellular solutions. All compounds were dissolved in dimethyl sulfoxide to make 10 mM stock solutions, which were then diluted into extracellular solution to attain the final concentrations desired. […] The voltage-dependence of inactivation was determined by applying a series of depolarizing prepulses (8 sec long in 10 mV increments) from a negative holding potential. The voltage was then immediately stepped to 0 mV to assess the magnitude of the sodium current. Currents elicited at 0 mV were plotted as a function of prepulse potential to allow estimation of the voltage at which 50% of the channels were inactivated (midpoint of inactivation or V1/2). Compounds were tested for their ability to inhibit hSCN9A sodium channels by activating the channel with a 20 msec voltage step to 0 mV following an 8 second conditioning prepulse to the empirically determined V1/2. Compound effect (% inhibition) was determined by difference in current amplitude before and after application of test compounds. For ease of comparison, “estimated IC-50” (EIC50) values were calculated from single point electrophysiology data by the following equation, (tested concentration, uM)×(100-% inhibition/% inhibition). Inhibition values<20% and >80% were excluded from the calculation.
Electrophysiological assays were conducted with PatchXpress 7000 hardware and associated software (Molecular Devices Corp). All assay buffers and solutions were identical to those used in conventional whole-cell voltage clamp experiments described above. hSCN9A cells were grown as above to 50%-80% confluency and harvested by trypsinization. […]

Row | Structure (SMILES) | IC50
1 | COc1ncccc1-c1cc(C(=O)NS(C)(=O)=O)ccc1Oc1cccc(C(C)C)c1 [Example 54, 4-(3-isopropylphenoxy)-3-(2-methoxypyridin-3-yl)-N-(methylsulfonyl)benzamide] | 120 nM
2 | COc1cc(Cl)cc(Oc2ccc(C(=O)NS(C)(=O)=O)cc2-c2cccnc2OC)c1 [Example 57, 4-(3-chloro-5-methoxyphenoxy)-3-(2-methoxypyridin-3-yl)-N-(methylsulfonyl)benzamide] | 660 nM
3 | COc1ncccc1-c1cc(C(=O)NS(C)(=O)=O)ccc1Oc1ccc(Cl)cc1 [Example 47, 4-(4-chlorophenoxy)-3-(2-methoxypyridin-3-yl)-N-(methylsulfonyl)benzamide] | 92 nM
4 | COc1ncccc1-c1cc(C(=O)NS(C)(=O)=O)ccc1Oc1ccc(C(F)(F)F)cc1 [Example 87, 3-(2-methoxypyridin-3-yl)-N-(methylsulfonyl)-4-[4-(trifluoromethyl)phenoxy]benzamide] | 86 nM
5 | CCOc1ccccc1-c1cc(C(=O)NS(C)(=O)=O)ccc1Oc1ccc(Cl)cc1 [Example 32, 6-(4-chlorophenoxy)-2′-ethoxy-N-(methylsulfonyl)-biphenyl-3-carboxamide] | 120 nM
6 | COc1ncccc1-c1cc(C(=O)NS(C)(=O)=O)ccc1Oc1cccc(F)c1F [Example 74, 4-(2,3-difluorophenoxy)-3-(2-methoxypyridin-3-yl)-N-(methylsulfonyl)benzamide] | 1900 nM
7 | COc1ccc(-c2cc(C(=O)NS(C)(=O)=O)ccc2Oc2ccc(Cl)cc2)cn1 [Example 16, 4-(4-chlorophenoxy)-3-(6-methoxypyridin-3-yl)-N-(methylsulfonyl)benzamide] | 910 nM
8 | CS(=O)(=O)NC(=O)c1ccc(Oc2ccc(Cl)cc2)c(-c2ccc(F)cc2)c1 [Example 9, 6-(4-Chlorophenoxy)-4′-fluoro-N-(methylsulfonyl)biphenyl-3-carboxamide] | 110 nM
9 | COc1cc(Cl)ccc1Oc1cc(F)c(C(=O)NS(C)(=O)=O)cc1-c1cccnc1OC [Example 4, 4-(4-chloro-2-methoxyphenoxy)-2-fluoro-5-(2-methoxypyridin-3-yl)-N-(methylsulfonyl)benzamide] | 4500 nM
10 | CS(=O)(=O)NC(=O)c1ccc(Oc2ccc(Cl)cc2)c(-c2cnc(N)nc2)c1 [Example 49, 3-(2-aminopyrimidin-5-yl)-4-(4-chlorophenoxy)-N-(methylsulfonyl)benzamide] | > 3000 nM
11 | COc1ncccc1-c1cc(C(=O)NS(C)(=O)=O)ccc1Oc1ccc(C#N)cc1 [Example 56, 4-(4-cyanophenoxy)-3-(2-methoxypyridin-3-yl)-N-(methylsulfonyl)benzamide] | 2400 nM
12 | CCOc1ccccc1Oc1ccc(C(=O)NS(C)(=O)=O)cc1-c1cccnc1OC [Example 67, 4-(2-ethoxyphenoxy)-3-(2-methoxypyridin-3-yl)-N-(methylsulfonyl)benzamide] | 2800 nM
13 | COc1ccc(Oc2ccc(C(=O)NS(C)(=O)=O)cc2-c2cccnc2OC)cc1Cl [Example 75, 4-(3-chloro-4-methoxyphenoxy)-3-(2-methoxypyridin-3-yl)-N-(methylsulfonyl)benzamide] | 310 nM
14 | CCc1cc(Oc2ccc(C(=O)NS(C)(=O)=O)cc2-c2ccn[nH]2)ccc1Cl [Example 95, 4-(4-chloro-3-ethylphenoxy)-N-(methylsulfonyl)-3-(1H-pyrazol-5-yl)benzamide hydrochloride salt] | 100 nM
15 | CS(=O)(=O)NC(=O)c1ccc(Oc2ccc(Cl)cc2)c(-c2ccccc2C#N)c1 [Example 33, 6-(4-chlorophenoxy)-2′-cyano-N-(methylsulfonyl)-biphenyl-3-carboxamide] | 290 nM
16 | COc1cc(-c2cc(C(=O)NS(C)(=O)=O)ccc2Oc2ccc(Cl)cc2)ccn1 [Example 45, 4-(4-chlorophenoxy)-3-(2-methoxypyridin-4-yl)-N-(methylsulfonyl)benzamide] | 2000 nM
17 | CCOc1cccc(Oc2ccc(C(=O)NS(C)(=O)=O)cc2-c2cccnc2OC)c1 [Example 84, 4-(3-ethoxyphenoxy)-3-(2-methoxypyridin-3-yl)-N-(methylsulfonyl)benzamide] | 490 nM
18 | COc1ncccc1-c1cc(C(=O)NS(C)(=O)=O)ccc1Oc1cccc(C(F)(F)F)c1 [Example 61, 3-(2-methoxypyridin-3-yl)-N-(methylsulfonyl)-4-[3-(trifluoromethyl)phenoxy]benzamide] | 66 nM
19 | COc1ncccc1-c1cc(C(=O)NS(C)(=O)=O)ccc1Oc1ccccc1F [Example 51, 4-(2-fluorophenoxy)-3-(2-methoxypyridin-3-yl)-N-(methylsulfonyl)benzamide] | 1700 nM
20 | CCOc1ccc(-c2cc(C(=O)NS(C)(=O)=O)ccc2Oc2ccc(Cl)cc2)cc1 [Example 12, 6-(4-chlorophenoxy)-4′-ethoxy-N-(methylsulfonyl)-biphenyl-3-carboxamide] | 3500 nM
21 | CS(=O)(=O)NC(=O)c1ccc(Oc2ccc(Cl)cc2)c(-c2ccc(C#N)nc2)c1 [Example 39, 4-(4-chlorophenoxy)-3-(6-cyanopyridin-3-yl)-N-(methylsulfonyl)benzamide] | 1100 nM
22 | COc1ncccc1-c1cc(C(=O)NS(C)(=O)=O)ccc1Oc1ccc(F)cc1F [Example 86, 4-(2,4-difluorophenoxy)-3-(2-methoxypyridin-3-yl)-N-(methylsulfonyl)benzamide] | 1100 nM
23 | Cc1ccc(-c2cc(C(=O)NS(C)(=O)=O)ccc2Oc2ccc(Cl)cc2)cn1 [Example 38, 4-(4-chlorophenoxy)-3-(6-methylpyridin-3-yl)-N-(methylsulfonyl)benzamide] | > 3000 nM
24 | CCOc1ncccc1-c1cc(C(=O)NS(C)(=O)=O)ccc1Oc1ccc(Cl)cc1 [Example 8, 4-(4-Chlorophenoxy)-3-(2-ethoxypyridin-3-yl)-N-(methylsulfonyl)benzamide] | 49 nM
25 | COc1ncccc1-c1cc(C(=O)NS(C)(=O)=O)ccc1Oc1cnc(OC(C)C)c(Cl)c1 [Example 7, 4-[(5-Chloro-6-isopropoxypyridin-3-yl)oxy]-3-(2-methoxypyridin-3-yl)-N-(methylsulfonyl)benzamide] | 66 nM
26 | CS(=O)(=O)NC(=O)c1ccc(Oc2ccc(Cl)cc2)c(-c2ccc(Cl)cn2)c1 [Example 37, 4-(4-chlorophenoxy)-3-(5-chloropyridin-2-yl)-N-(methylsulfonyl)benzamide] | 340 nM
27 | COc1ncccc1-c1cc(C(=O)NS(C)(=O)=O)ccc1Oc1cc(F)cc(F)c1 [Example 69, 4-(3,5-difluorophenoxy)-3-(2-methoxypyridin-3-yl)-N-(methylsulfonyl)benzamide] | 440 nM
28 | COc1ccccc1-c1cc(C(=O)NS(C)(=O)=O)ccc1Oc1ccc(Cl)cc1 [Example 15, 6-(4-chlorophenoxy)-2′-methoxy-N-(methylsulfonyl)-biphenyl-3-carboxamide] | 180 nM
29 | COc1ccc(-c2cc(C(=O)NS(C)(=O)=O)ccc2Oc2ccc(Cl)cc2)cc1 [Example 50, 6-(4-chlorophenoxy)-4′-methoxy-N-(methylsulfonyl)-biphenyl-3-carboxamide] | 730 nM
30 | COc1ncccc1-c1cc(C(=O)NS(C)(=O)=O)ccc1Oc1ccccc1OC(F)(F)F [Example 58, 3-(2-methoxypyridin-3-yl)-N-(methylsulfonyl)-4-[2-(trifluoromethoxy)phenoxy]benzamide] | > 1000 nM
